Experimental data taken from US7622497B2, “Derivatives of gambogic acid and analogs as activators of caspases and inducers of apoptosis” (Cytovia, Inc., priority 2003, dated 2009).

Key:
[1] = test system: T-47D; experiment: Caspase cascade activation (DEVD-R110 fluorogenic substrate) in T-47D cells; assay type: cell-based, Human; settings: 24 h incubation; for EC50: Homo sapiens, T47D, read-out: Caspase potency EC50 T-47D; for Caspase activity (Ratio) T-47D: ratio of net RFU of compound to control, 0.16 to 10 μM final
Protocol: (§1) Human breast cancer cell lines T-47D and DLD were grown according to media component mixtures designated by American Type Culture Collection+10% FCS Invitrogen Corporation), in a 5% CO2-95% humidity incubator at 37° C. T-47D and DLD cells were maintained at a cell density between 30 and 80% confluency and for HL-60 at a cell density of 0.1 to 0.6×10^6 cells/ml. Cells were harvested at 600×g and resuspended at 0.65×10^6 cells/mL into appropriate media+10% FCS. An aliquot of 45 μl of cells was added to a well of a 96-well microtiter plate containing 5 μl of a 10% DMSO in RPMI-1640 media solution containing 1.6 to 100 μM of novel derivative of gambogic acid (0.16 to 10 μM final). An aliquot of 45 μl of cells was added to a well of a 96-well microtiter plate containing 5 μl of a 10%. DMSO in RPMI-1640 media solution without test compound as the control sample. The samples were mixed by agitation and then incubated at 37° C. for 24 h in a 5% CO2-95% humidity incubator. After incubation, the samples were removed from the incubator and 50 μl of a solution containing 20 μM of N-(Ac-DEVD)-N′-ethoxycarbonyl-R110 fluorogenic substrate SEQ ID NO:1 (Cytovia, Inc.; U.S. Pat. No. 6,335,429), 20% sucrose (Sigma), 20 mM DTT (Sigma), 200 mM NaCl (Sigma), 40 mM Na PIPES buffer pH 7.2 (Sigma), and 500 μg/ml lysolecithin (Calbiochem) was added. The samples were mixed by agitation and incubated at room temperature. Using a fluorescent plate reader (Model 1420 Wallac Instruments), an initial reading (T=0) was made approximately 1-2 min after addition of the substrate solution, employing excitation at 485 nm and emission at 530 nm, to determine the background fluorescence of the control sample. After approximately 3 h of incubation, the samples were read for fluorescence as above (T=3 h).
(§2) The Relative Fluorescence Unit values (RFU) were used to calculate the sample readings as follows: RFU(T=3h)−Control RFU(T=0)=Net RFU(T=3h)
(§3) The activity of caspase cascade activation was determined by the ratio of the net RFU value for derivatives of gambogic acid to that of control samples. The EC50 (nM) was determined by a sigmoidal dose-response calculation (Prism 2.0, GraphPad Software Inc.).

[2] = test system: DLD; experiment: Caspase cascade activation (DEVD-R110 fluorogenic substrate) in DLD cells; assay type: cell-based, Human; settings: 24 h incubation; for EC50: Homo sapiens, read-out: Caspase potency EC50 DLD; for Caspase activity (Ratio) DLD: ratio of net RFU of compound to control, 0.16 to 10 μM final
Protocol: as §1, §2, §3

[3] = test system: H1299; experiment: Inhibition of cell proliferation (GI50), H1299; assay type: cell-based; settings: Homo sapiens, NCI-H1299; H1299 cells, 48 h, CellTiter 96 AQueous
Protocol: (§4) T-47D, DLD-1, MX-1, SW620, H1299, HEK293T and HEK293H cells were grown and harvested as in Example 11. An aliquot of 90 μL of cells (2.2×10^4 cells/mL) was added to a well of a 96-well microtiter plate containing 10 μl of a 10% DMSO in RPMI-1640 media solution containing 1 nM to 100 μM of novel derivative of gambogic acid (Example 2; 0.1 nM to 10 μM final). An aliquot of 90 μL of cells was added to a well of a 96-well microtiter plate containing 10 μL of a 10% DMSO in RPMI-1640 media solution without compound as the control sample for maximal cell proliferation (AMax). The samples were mixed by agitation and then incubated at 37° C. for 48 h in a 5% CO2-95% humidity incubator. After incubation, the samples were removed from the incubator and 20 μL of CellTiter 96 AQUEOUS One Solution Cell Proliferation™ reagent (Promega) was added. The samples were mixed by agitation and incubated at 37° C. for 2-4 h in a 5% CO2-95% humidity incubator. Using an absorbance plate reader (Model 1420 Wallac Instruments), an initial reading (T=0) was made approximately 1-2 min after addition of the solution, employing absorbance at 490 nm. This determines the possible background absorbance of the test compounds. No absorbance for the derivative of gambogic acid was found at 490 nm. After the 2-4 h incubation, the samples were read for absorbance as above (ATest). […]

[4] = test system: SW620; experiment: Inhibition of cell proliferation (GI50), SW620; assay type: cell-based; settings: Homo sapiens, SW-620; SW620 cells, 48 h, CellTiter 96 AQueous
Protocol: as §4

[5] = test system: DLD; experiment: Inhibition of cell proliferation (GI50), DLD; assay type: cell-based; settings: Homo sapiens; DLD cells, 48 h, CellTiter 96 AQueous
Protocol: as §4

[6] = test system: HEK293H; experiment: Inhibition of cell proliferation (GI50), HEK293H; assay type: cell-based; settings: HEK293-H; HEK293H cells, 48 h, CellTiter 96 AQueous
Protocol: as §4

[7] = test system: HEK293T; experiment: Inhibition of cell proliferation (GI50), HEK293T; assay type: cell-based; settings: Homo sapiens, HEK-293T; HEK293T cells, 48 h, CellTiter 96 AQueous
Protocol: as §4

[8] = test system: MX-1; experiment: Inhibition of cell proliferation (GI50), MX-1; assay type: cell-based; settings: Homo sapiens, MX1; MX-1 cells, 48 h, CellTiter 96 AQueous
Protocol: as §4

[9] = test system: T47D; experiment: Inhibition of cell proliferation (GI50), T47D; assay type: cell-based; settings: Homo sapiens; T47D cells, 48 h, CellTiter 96 AQueous
Protocol: as §4

Row | Structure (SMILES) | EC50 [1] [nM] | Caspase activity (Ratio) T-47D [1] | EC50 [2] [nM] | Caspase activity (Ratio) DLD [2] | GI50 [3] [nM] | GI50 [4] [nM] | GI50 [5] [nM] | GI50 [6] [nM] | GI50 [7] [nM] | GI50 [8] [nM] | GI50 [9] [nM]
1 | CC(C)=CCCC1(C)C=Cc2c(O)c3c(c(CC=C(C)C)c2O1)OC12C(=CC4CC1C(C)(C)OC2(C/C=C(/C)C(=O)NCCCN1CCOCC1)C4=O)C3=O (centres unmarked) [Example 4, N-(3-Morpholin-4-yl-propyl)gambogamide] | 638 | 15 | 824 | 7.2 |  |  |  |  |  |  | 
2 | COC(=O)/C(C)=C\CC12OC(C)(C)C3CC(C1=O)C(N1CCOCC1)C1C(=O)c4c(O)c5c(c(CC=C(C)C)c4OC132)OC(C)(CCC=O)C=C5 (centres unmarked) [Example 7, Methyl 20-Ethylaldehyde-9,10-dihydro-10-morpholinyl-morellinate] | 1110 | 16 | 1360 | 5.8 |  |  |  |  |  |  | 
3 | COC(=O)/C(C)=C\CC12OC(C)(C)C3CC(C=C4C(=O)c5c(O)c6c(c(CC=C(C)C)c5OC431)OC(C)(CCC(O)C(C)(C)O)C=C6)C2=O (centres unmarked) [Example 5, Methyl 37,38-Dihydroxy-gambogate] | 750 | 17 | 1290 | 7.2 |  |  |  |  |  |  | 
4 | CC(C)=CCCC1(C)C=Cc2c(O)c3c(c(CC=C(C)C)c2O1)OC12C(=CC4CC1C(C)(C)OC2(C/C=C(/C)C(=O)OCCN1CCOCC1)C4=O)C3=O (centres unmarked) [Example 1, 2-(Morpholin-4-yl)-ethyl gambogate] | 303 | 18 | 350 | 7.6 |  |  |  |  |  |  | 
5 | CC(C)=CCCC1(C)C=Cc2c(O)c3c(c(CC=C(C)C)c2O1)OC12C(=CC4CC1C(C)(C)OC2(C/C=C(/C)C(=O)OCCN(C)C)C4=O)C3=O (centres unmarked) [Example 2, 2-Dimethylaminoethyl gambogate] | 676 | 17 | 1040 | 7.2 | 184 | 180 | 173 | 192 | 440 | 101 | 187
6 | COC(=O)/C(C)=C\CC12OC(C)(C)C3CC(C1=O)C(N1CCOCC1)C1C(=O)c4c(O)c5c(c(CC=C(C)C)c4OC132)OC(C)(CCC(O)C(C)(C)O)C=C5 (centres unmarked) [Example 6, Methyl 37,38-Dihydroxy-9,10-dihydro-10-morpholinyl-gambogate] | 1160 | 17 | 2400 | 9.2 |  |  |  |  |  |  | 
7 | CC(C)=CCCC1(C)C=Cc2c(O)c3c(c(CC=C(C)C)c2O1)OC12C(=CC4CC1C(C)(C)OC2(C/C=C(/C)C(=O)NCCCN1CCN(C)CC1)C4=O)C3=O (centres unmarked) [Example 3, N-[3-(4-Methyl-piperazin-1-yl)-propyl]gambogamide] | 1660 | 13 | 2120 | 5.8 |  |  |  |  |  |  | 
